Laboratory results as given in the NIST ThermoML archive (doi:10.1021/je0501843).
Where “and” joins values, the source holds several entries; their conditions need not be identical. Equal values may be shown once.

Assay: molar heat capacity at constant volume; wn = mass fraction of the nth substance listed
Details: Fluid (supercritical or subcritical phases), Vacuum adiabatic calorimetry, w1 = 0.5001

FC(F)C(F)(F)F [pentafluoroethane] + FCF
Details	molar heat capacity at constant volume
301 K, 4414 kPa	70.23 J/K/mol
302 K, 4977 kPa	70.17 J/K/mol
303 K, 5537 kPa	70.3 J/K/mol
303 K, 5540 kPa	70.03 J/K/mol
304 K, 6101 kPa	69.82 J/K/mol
304 K, 6103 kPa	69.96 J/K/mol
305 K, 6663 kPa	69.83 J/K/mol and 69.76 J/K/mol
306 K, 7227 kPa	69.97 J/K/mol
306 K, 7228 kPa	70.45 J/K/mol
307 K, 7791 kPa	70.07 J/K/mol
307 K, 7792 kPa	70.29 J/K/mol
308 K, 8356 kPa	69.75 J/K/mol
308 K, 8357 kPa	69.97 J/K/mol
309 K, 8918 kPa	70.23 J/K/mol and 69.75 J/K/mol
310 K, 9482 kPa	70.03 J/K/mol
310 K, 9484 kPa	69.9 J/K/mol
311 K, 10048 kPa	70.12 J/K/mol
311 K, 10049 kPa	69.86 J/K/mol
312 K, 10614 kPa	69.67 J/K/mol
312 K, 10615 kPa	69.66 J/K/mol
313 K, 11178 kPa	69.33 J/K/mol
313 K, 11179 kPa	69.43 J/K/mol
314 K, 11741 kPa	69.02 J/K/mol
314 K, 11743 kPa	69.3 J/K/mol
315 K, 12309 kPa	69.15 J/K/mol and 68.67 J/K/mol
316 K, 12875 kPa	69.06 J/K/mol
316 K, 12877 kPa	68.75 J/K/mol
317 K, 13440 kPa	68.83 J/K/mol and 68.21 J/K/mol
318 K, 14003 kPa	67.4 J/K/mol
318 K, 14005 kPa	68 J/K/mol
319 K, 14570 kPa	67.78 J/K/mol
319 K, 14571 kPa	68.05 J/K/mol
320 K, 15135 kPa	67.81 J/K/mol
320 K, 15137 kPa	68.49 J/K/mol
321 K, 15700 kPa	67.05 J/K/mol
321 K, 15701 kPa	67.37 J/K/mol
322 K, 16263 kPa	66.48 J/K/mol
322 K, 16265 kPa	66.83 J/K/mol
323 K, 16830 kPa	66.97 J/K/mol and 66.81 J/K/mol
324 K, 17394 kPa	66.92 J/K/mol
324 K, 17396 kPa	66.39 J/K/mol
325 K, 5448 kPa	69.93 J/K/mol
325 K, 17959 kPa	66.13 J/K/mol
325 K, 17961 kPa	66.31 J/K/mol
326 K, 5835 kPa	69.81 J/K/mol
326 K, 5836 kPa	71.48 J/K/mol
326 K, 18524 kPa	65.89 J/K/mol
326 K, 18525 kPa	66.07 J/K/mol
327 K, 6224 kPa	70.12 J/K/mol
327 K, 6225 kPa	69.92 J/K/mol
327 K, 19088 kPa	66.16 J/K/mol
327 K, 19090 kPa	66.42 J/K/mol
328 K, 6615 kPa	70.49 J/K/mol
328 K, 6616 kPa	71.47 J/K/mol
328 K, 19652 kPa	66.1 J/K/mol
328 K, 19655 kPa	66.08 J/K/mol
329 K, 7006 kPa	70.47 J/K/mol
329 K, 7007 kPa	71.63 J/K/mol
330 K, 7397 kPa	69.74 J/K/mol
330 K, 7399 kPa	71.02 J/K/mol
331 K, 7788 kPa	69.69 J/K/mol
331 K, 7790 kPa	71.06 J/K/mol
332 K, 8183 kPa	71.27 J/K/mol
332 K, 8184 kPa	70.57 J/K/mol
333 K, 8579 kPa	70.36 J/K/mol and 71.51 J/K/mol
334 K, 8970 kPa	71.08 J/K/mol
334 K, 8971 kPa	69.51 J/K/mol
335 K, 9364 kPa	69.28 J/K/mol and 70.76 J/K/mol
336 K, 9759 kPa	69.92 J/K/mol and 70.89 J/K/mol
337 K, 10156 kPa	71.33 J/K/mol
337 K, 10157 kPa	70.6 J/K/mol
338 K, 6179 kPa	73.09 J/K/mol
338 K, 10552 kPa	71.08 J/K/mol
338 K, 10553 kPa	69.86 J/K/mol
339 K, 6478 kPa	73.25 J/K/mol
339 K, 10948 kPa	68.64 J/K/mol and 70.46 J/K/mol
340 K, 6782 kPa	73.55 J/K/mol
340 K, 11344 kPa	69.16 J/K/mol
340 K, 11346 kPa	71.1 J/K/mol
341 K, 7089 kPa	73.85 J/K/mol
341 K, 11743 kPa	69.77 J/K/mol
341 K, 11745 kPa	71.13 J/K/mol
342 K, 7389 kPa	73.14 J/K/mol
342 K, 12139 kPa	69.04 J/K/mol
342 K, 12142 kPa	70.69 J/K/mol
343 K, 7693 kPa	72.74 J/K/mol
343 K, 12536 kPa	68.97 J/K/mol
343 K, 12538 kPa	70.99 J/K/mol
344 K, 7998 kPa	73.01 J/K/mol
344 K, 12935 kPa	69.06 J/K/mol
344 K, 12936 kPa	70.57 J/K/mol
345 K, 8306 kPa	73.42 J/K/mol
345 K, 13334 kPa	70.04 J/K/mol
346 K, 8612 kPa	73.52 J/K/mol
346 K, 13733 kPa	70.31 J/K/mol
347 K, 6281 kPa	76.51 J/K/mol
347 K, 8917 kPa	72.76 J/K/mol
347 K, 14131 kPa	69.61 J/K/mol
348 K, 6505 kPa	75.76 J/K/mol
348 K, 9225 kPa	72.31 J/K/mol
348 K, 14528 kPa	69.08 J/K/mol
349 K, 5380 kPa	96.64 J/K/mol
349 K, 6732 kPa	76.89 J/K/mol
349 K, 9535 kPa	72.88 J/K/mol
349 K, 14929 kPa	70.2 J/K/mol
350 K, 5486 kPa	95.02 J/K/mol
350 K, 5543 kPa	91.24 J/K/mol
350 K, 5720 kPa	84.88 J/K/mol
350 K, 6957 kPa	76.37 J/K/mol
350 K, 9844 kPa	72.65 J/K/mol
350 K, 15331 kPa	69.99 J/K/mol
351 K, 5591 kPa	91.71 J/K/mol
351 K, 5661 kPa	90.24 J/K/mol
351 K, 5866 kPa	81.35 J/K/mol
351 K, 7184 kPa	75.16 J/K/mol
351 K, 10153 kPa	72.45 J/K/mol
351 K, 15729 kPa	68.92 J/K/mol
352 K, 5697 kPa	89.08 J/K/mol
352 K, 5778 kPa	87.68 J/K/mol
352 K, 5877 kPa	87.6 J/K/mol
352 K, 6013 kPa	80.15 J/K/mol
352 K, 7411 kPa	74.15 J/K/mol
352 K, 10462 kPa	72.57 J/K/mol
352 K, 16128 kPa	68.79 J/K/mol
353 K, 5802 kPa	88.36 J/K/mol
353 K, 5898 kPa	87.13 J/K/mol
353 K, 6010 kPa	87.42 J/K/mol
353 K, 6163 kPa	80.29 J/K/mol
353 K, 7640 kPa	75.09 J/K/mol
353 K, 10771 kPa	72.4 J/K/mol
353 K, 16529 kPa	69.17 J/K/mol
354 K, 5907 kPa	87.38 J/K/mol
354 K, 6017 kPa	86.01 J/K/mol
354 K, 6144 kPa	86.89 J/K/mol
354 K, 6312 kPa	80.47 J/K/mol
354 K, 7867 kPa	74.78 J/K/mol
354 K, 11082 kPa	72.54 J/K/mol
354 K, 16929 kPa	68.92 J/K/mol
355 K, 6013 kPa	85.59 J/K/mol
355 K, 6136 kPa	84.29 J/K/mol
355 K, 6277 kPa	85.22 J/K/mol
355 K, 6460 kPa	78.25 J/K/mol
355 K, 8099 kPa	73.81 J/K/mol
355 K, 11393 kPa	71.62 J/K/mol
355 K, 17330 kPa	68.05 J/K/mol
356 K, 6119 kPa	85.68 J/K/mol
356 K, 6256 kPa	84 J/K/mol
356 K, 6409 kPa	84.29 J/K/mol
356 K, 6610 kPa	77.58 J/K/mol
356 K, 8331 kPa	73.96 J/K/mol
356 K, 11703 kPa	71.68 J/K/mol
356 K, 17728 kPa	68.48 J/K/mol
357 K, 6227 kPa	86.16 J/K/mol
357 K, 6375 kPa	83.21 J/K/mol
357 K, 6544 kPa	84.6 J/K/mol
357 K, 6762 kPa	78.59 J/K/mol
357 K, 8563 kPa	73.79 J/K/mol
357 K, 12015 kPa	72.2 J/K/mol
357 K, 18129 kPa	68.93 J/K/mol
358 K, 6332 kPa	84.37 J/K/mol
358 K, 6496 kPa	82.34 J/K/mol
358 K, 6679 kPa	84.32 J/K/mol
358 K, 6913 kPa	78.26 J/K/mol
358 K, 8795 kPa	73.5 J/K/mol
358 K, 12328 kPa	72.12 J/K/mol
358 K, 18529 kPa	68.62 J/K/mol
359 K, 6438 kPa	82.91 J/K/mol
359 K, 6616 kPa	81.68 J/K/mol
359 K, 6814 kPa	82.54 J/K/mol
359 K, 7064 kPa	76.43 J/K/mol
359 K, 9028 kPa	72.9 J/K/mol
359 K, 12639 kPa	71.57 J/K/mol
359 K, 18928 kPa	68.27 J/K/mol
360 K, 6544 kPa	82.44 J/K/mol
360 K, 6737 kPa	80.97 J/K/mol
360 K, 6948 kPa	82 J/K/mol
360 K, 7219 kPa	76.78 J/K/mol
360 K, 9258 kPa	72.64 J/K/mol
360 K, 12952 kPa	70.73 J/K/mol
361 K, 6650 kPa	82.84 J/K/mol
361 K, 6858 kPa	80.53 J/K/mol
361 K, 7085 kPa	81.72 J/K/mol
361 K, 7368 kPa	77.24 J/K/mol
361 K, 9493 kPa	73.35 J/K/mol
361 K, 13265 kPa	71.22 J/K/mol
362 K, 6758 kPa	82.74 J/K/mol
362 K, 6980 kPa	80.56 J/K/mol
362 K, 7222 kPa	81.91 J/K/mol
362 K, 7523 kPa	75.41 J/K/mol
362 K, 9726 kPa	73.82 J/K/mol
362 K, 13581 kPa	70.53 J/K/mol
363 K, 6864 kPa	81.25 J/K/mol
363 K, 7101 kPa	80.13 J/K/mol
363 K, 7357 kPa	81.64 J/K/mol
363 K, 7676 kPa	75.63 J/K/mol
363 K, 9958 kPa	73.52 J/K/mol
